Data from publication PMC11456799 (Molecular Therapy. Nucleic Acids, 2024).

What was measured:
WA-1/2020 SARS-CoV-2 = system: WA-1/2020 SARS-CoV-2; parameters: species or system K18-hACE2 mice; settings: mouse, in vivo, po, 150 mg/kg
SARS-CoV-2 Omicron BA.1 = assay: In vitro antiviral assay in HeLa-ACE2 cells; type: cell-based; settings: Severe acute respiratory syndrome coronavirus 2, HeLa-ACE2
[1] = system: SARS-CoV-2 Omicron XBB1.5; assay: In vitro antiviral assay in HeLa-ACE2 cells; type: cell-based; settings: Severe acute respiratory syndrome coronavirus 2, HeLa-ACE2
[2] = system: SARS-CoV-2 Delta (B.1.617.2); assay: In vitro antiviral assay in HeLa-ACE2 cells; type: cell-based; settings: Severe acute respiratory syndrome coronavirus 2, HeLa-ACE2
SARS-CoV-2 Omicron JN.1 = assay: In vitro antiviral assay in HeLa-ACE2 cells; type: cell-based; settings: Severe acute respiratory syndrome coronavirus 2, HeLa-ACE2
in vitro = settings: human
SARS-CoV-2 Omicron BA.5 = assay: In vitro antiviral assay in HeLa-ACE2 cells; type: cell-based; settings: Severe acute respiratory syndrome coronavirus 2, HeLa-ACE2
HeLa-ACE2 cells = settings: human
SARS-CoV-2 WA-1/2020 = assay: In vitro antiviral assay in HeLa-ACE2 cells; type: cell-based; settings: Severe acute respiratory syndrome coronavirus 2, HeLa-ACE2

Structure (SMILES)	lung virus titer lowering (positive control) (WA-1/2020 SARS-CoV-2)	IC50 (SARS-CoV-2 Omicron BA.1) [µM]	IC90 (SARS-CoV-2 Omicron BA.1) [µM]	IC50 [1] [µM]	IC90 [1] [µM]	IC50 [2] [µM]	IC90 [2] [µM]	IC50 (SARS-CoV-2 Omicron JN.1) [µM]	IC90 (SARS-CoV-2 Omicron JN.1) [µM]	CC50 (in vitro) [µM]	IC50 (SARS-CoV-2 Omicron BA.5) [µM]	IC90 (SARS-CoV-2 Omicron BA.5) [µM]	CC50 (HeLa-ACE2 cells) [µM]	IC50 (SARS-CoV-2 WA-1/2020) [µM]	IC90 (SARS-CoV-2 WA-1/2020) [µM]
CC(C)C(=O)OC[C@H]1O[C@@H](n2ccc(NO)nc2=O)[C@H](O)[C@@H]1O [MK-4482, molnupiravir]	approximately 3 log10 ffu/g tissue	–	–	–	–	–	–	–	–	–	–	–	–	–	–
CC(C)(C)[C@H](NC(=O)C(F)(F)F)C(=O)N1C[C@H]2[C@@H]([C@H]1C(=O)N[C@H](C#N)C[C@@H]1CCNC1=O)C2(C)C [Nirmatrelvir, nirmatrelvir]	–	0.03	0.08	0.02	0.05	0.04	0.17	0.06	0.15	> 5	0.05	0.14	> 5	0.11	0.21
